From US20140051679A1, “KINASE INHIBITORS AND METHOD OF TREATING CANCER WITH SAME” (UNIVERISTY HEALTH NETWORKS, priority 2011, published 2014)

Tests used:
[1] = test system: MDA-MB-231 breast cancer cells; experiment: Cell growth inhibition, Sulforhodamine B assay, MDA-MB-231; assay type: cell-based; settings: Homo sapiens, 120 h, 5 days culture, SRB assay, read-out: Cell Line GI50 Range MDA-MB-231
[2] = test system: HCT116 colon cancer cells; experiment: Cell growth inhibition, Sulforhodamine B assay, HCT116; assay type: cell-based; settings: Homo sapiens, HCT-116, 120 h, 5 days culture, SRB assay, read-out: Cell Line GI50 Range HCT116
[3] = test system: OVCAR-3 ovarian cancer cells; experiment: Cell growth inhibition, Sulforhodamine B assay, OVCAR-3; assay type: cell-based; settings: Homo sapiens, 120 h, 5 days culture, SRB assay, read-out: Cell Line GI50 Range OVCAR-3
Experimental: (§1) Breast cancer cells (MDA-MB-231, MDA-MB-468), colon cancer cells (HCT116, HT29) and ovarian cancer cells (PA-1, OVCAR-3) were seeded (1000 to 4000 in 80 μl per well depending on the cell growth rate) into 96 well plates 24 hours before compound overlay. Compounds were prepared as 10 mM stock solutions in 100% DMSO which were diluted with DMEM (Dulbecco's Modified Eagle's Medium) cell growth Medium (Invitrogen, Burlington, ON, Canada) containing 10% FBS (Fetal Bovine Serum) to concentrations ranging from 50 nM to 250 μM. Aliquots (20 μl) from each concentration were overlaid to 80 μl of the pre-seeded cells in the 96 well plates to make final concentrations of 10 nM to 50 μM. The cells were cultured for 5 days before the Sulforhodamine B assay (SRB) was performed to determine the compound's cell growth inhibition activity.
(§2) Sulforhodamine B (purchased from Sigma, Oakville, ON, Canada) is a water-soluble dye that binds to the basic amino acids of the cellular proteins. Thus, colorimetric measurement of the bound dye provides an estimate of the total protein mass that is related to the cell number. the cells are fixed in situ by gently aspirating off the culture media and adding 50 μl ice cold 10% Trichloroacetic Acid (TCA) per well and incubate at 4° C. for 30-60 min, The plates are washed with water five times and allowed to air dry for 5 min. Addition of 50 μl 0.4% (w/v) SRB solution in 1% (v/v) acetic acid to each well and incubatation for 30 min at RT completes the staining reaction. Following staining, plates are washed four times with 1% acetic acid to remove unbound dye and then allowed to air dry for 5 min. The stain is solubilized with 100 μl of 10 mM Tris pH 10.5 per well. Absorbance is read at 570 nm.
(§3) The percentage (%) of relative growth inhibition was calculated by comparing to DMSO treated only cells (100%). […] The GI50 was calculated using GraphPad PRISM software (GraphPad Software, Inc., San Diego, Calif., USA).

Aurora B = molecular target: T1, Aurora B (Homo sapiens, UniProt Q96GD4); experiment: Aurora B inhibition assay (Z-Lyte); assay type: biochemical; settings: 28 nM Aurora B, 128 μM ATP; read-out: IC50 Ranges Aurora B
T1 construct: purchased Invitrogen PV3970
T1 sequence (Q96GD4 whole entry): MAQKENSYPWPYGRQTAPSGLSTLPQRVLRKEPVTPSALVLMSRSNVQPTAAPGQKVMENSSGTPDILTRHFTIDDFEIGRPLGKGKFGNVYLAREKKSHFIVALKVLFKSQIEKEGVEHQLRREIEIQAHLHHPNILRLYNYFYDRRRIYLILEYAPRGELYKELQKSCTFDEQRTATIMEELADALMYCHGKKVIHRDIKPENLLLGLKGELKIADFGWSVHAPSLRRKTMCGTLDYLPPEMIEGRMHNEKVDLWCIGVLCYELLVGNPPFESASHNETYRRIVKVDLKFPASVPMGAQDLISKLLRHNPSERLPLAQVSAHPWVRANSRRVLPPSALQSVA
Experimental: Aurora B inhibition was determined using the Z-Lyte assay kit from Invitrogen. The assay was performed using the recommended manufacturer's instructions with 128 μM ATP and 28 nM Aurora B (Invitrogen cat #PV3970). The % inhibition values were determined according to the manufacturer's directions and IC50 values were obtained using a non-linear 4 point logistic curve fit (XLfit4, IDBS)

human TTK = molecular target: T2, human TTK (Homo sapiens, UniProt P33981); experiment: TTK inhibition assay (indirect ELISA); assay type: biochemical; settings: GST-TTK 0.68 nM, 16 μM ATP; read-out: IC50 Ranges TTK
T2 construct: amino terminal GST fusion of full length human TTK; purchased Invitrogen
T2 sequence (P33981 1-857): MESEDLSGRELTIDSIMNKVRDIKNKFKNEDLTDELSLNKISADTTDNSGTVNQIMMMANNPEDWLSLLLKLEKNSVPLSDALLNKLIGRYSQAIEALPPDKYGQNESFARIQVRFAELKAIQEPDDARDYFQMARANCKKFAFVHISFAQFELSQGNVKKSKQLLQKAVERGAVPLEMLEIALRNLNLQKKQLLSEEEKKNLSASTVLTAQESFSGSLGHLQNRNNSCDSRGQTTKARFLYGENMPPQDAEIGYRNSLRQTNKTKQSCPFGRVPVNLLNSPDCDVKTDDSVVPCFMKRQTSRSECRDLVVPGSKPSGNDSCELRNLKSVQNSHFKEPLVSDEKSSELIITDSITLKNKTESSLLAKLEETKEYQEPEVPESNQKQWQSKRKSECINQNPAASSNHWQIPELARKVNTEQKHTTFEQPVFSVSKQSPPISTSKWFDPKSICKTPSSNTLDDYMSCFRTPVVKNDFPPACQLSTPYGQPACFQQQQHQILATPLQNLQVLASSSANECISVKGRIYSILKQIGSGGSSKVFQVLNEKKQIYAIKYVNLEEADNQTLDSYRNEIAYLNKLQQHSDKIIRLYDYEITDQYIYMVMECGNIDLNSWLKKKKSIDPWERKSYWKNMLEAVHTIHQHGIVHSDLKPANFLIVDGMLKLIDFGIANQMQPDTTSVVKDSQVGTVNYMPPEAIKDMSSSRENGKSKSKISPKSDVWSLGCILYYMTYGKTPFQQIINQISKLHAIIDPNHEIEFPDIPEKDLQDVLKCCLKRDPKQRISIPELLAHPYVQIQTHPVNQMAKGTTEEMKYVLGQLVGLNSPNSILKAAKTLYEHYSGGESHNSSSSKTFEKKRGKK

[4] = test system: MDA-MB-468 breast cancer cells; experiment: Cell growth inhibition, Sulforhodamine B assay, MDA-MB-468; assay type: cell-based; settings: Homo sapiens, 120 h, 5 days culture, SRB assay, read-out: Cell Line GI50 Range MDA-MB-468
[5] = test system: PA-1 ovarian cancer cells; experiment: Cell growth inhibition, Sulforhodamine B assay, PA-1; assay type: cell-based; settings: 120 h, 5 days culture, SRB assay, read-out: Cell Line GI50 Range PA-1
Experimental: as §1, §2, §3

HT29 colon cancer cells = experiment: Cell growth inhibition, Sulforhodamine B assay, HT29; assay type: cell-based; settings: Homo sapiens, HT-29, 120 h, 5 days culture, SRB assay, read-out: Cell Line GI50 Range HT29
human PLK4 = molecular target: T3, human PLK4 (Homo sapiens, UniProt O00444); experiment: PLK4 inhibition assay (indirect ELISA); assay type: biochemical; settings: GST-PLK4 4 nM, 15 μM ATP; read-out: IC50 Ranges PLK4
T3 construct: amino terminal GST fusion of residues 1-391 of human PLK4; made in house; host or cells: E. coli
T3 sequence (O00444 1-391): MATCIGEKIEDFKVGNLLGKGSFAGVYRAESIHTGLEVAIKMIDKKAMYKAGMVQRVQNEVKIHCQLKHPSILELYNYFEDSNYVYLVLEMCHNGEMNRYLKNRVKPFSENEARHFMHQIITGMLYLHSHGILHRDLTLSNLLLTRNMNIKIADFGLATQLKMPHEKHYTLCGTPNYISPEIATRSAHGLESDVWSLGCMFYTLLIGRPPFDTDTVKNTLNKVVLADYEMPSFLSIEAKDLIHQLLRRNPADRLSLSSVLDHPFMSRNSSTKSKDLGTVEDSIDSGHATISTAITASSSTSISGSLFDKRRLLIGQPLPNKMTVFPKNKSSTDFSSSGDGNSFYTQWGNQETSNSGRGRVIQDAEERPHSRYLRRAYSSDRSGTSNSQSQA
In short: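 Compounds were tested either at a single 10 μM dose or across 10-point titrations (typically 0.5 to 0.001 μM), preincubated 15 min with 4 nM GST-PLK4 (human 1-391, dephosphorylated) before 15 μM ATP was added. MBP substrate phosphorylation over 30 min, pH 7.5 HEPES/MgCl2 buffer, read by HRP/TMB ELISA (450 nm). % inhibition vs. high-activity control; IC50 by logistic fit.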

SMILES | GI50 [1] | GI50 [2] | GI50 [3] | IC50 (Aurora B) | IC50 (human TTK) | GI50 [4] | GI50 [5] | GI50 (HT29 colon cancer cells) | IC50 (human PLK4)
CN1CCC(Oc2ccc(-c3n[nH]c4ccc(NC(=O)C5CCCc6ccccc65)cc34)cc2)CC1 (stereo not drawn) [Example A18, N-(3-(4-((1-methylpiperidin-4-yl)oxy)phenyl)-1H-indazol-5-yl)-1,2,3,4-tetrahydronaphthalene-1-carboxamide] | ≤ 5 µM | ≤ 5 µM | ≤ 5 µM | ≤ 5 µM | ≤ 5 µM | ≤ 5 µM | ≤ 5 µM | ≤ 5 µM | ≤ 5 µM
Cc1ccccc1CC(=O)Nc1ccc2[nH]nc(-c3ccc(OC4CCN(C)CC4)cc3)c2c1 [Example A92, N-(3-(4-(1-Methylpiperidin-4-yloxy)phenyl)-1H-indazol-5-yl)-2-o-tolylacetamide] | ≤ 5 µM | ≤ 5 µM | ≤ 5 µM | ≤ 5 µM | ≤ 5 µM | ≤ 5 µM | ≤ 5 µM | ≤ 5 µM | ≤ 5 µM
CN1CCN(C)c2ccc(-c3n[nH]c4ccc(NC(=O)C(c5ccsc5)N5CCCC5)cc34)cc2C1 (stereo not drawn) [Example A93, N-(3-(1,4-dimethyl-2,3,4,5-tetrahydro-1H-benzo[e][1,4]diazepin-7-yl)-1H-indazol-5-yl)-2-(pyrrolidin-1-yl)-2-(thiophen-3-yl)acetamide] | ≤ 5 µM | ≤ 5 µM | 5 to 20 µM | ≤ 5 µM | ≤ 5 µM | ≤ 5 µM | ≤ 5 µM | ≤ 5 µM | ≤ 5 µM
CN1CCN(C(=O)c2cccc(-c3n[nH]c4ccc(NC(=O)C(c5ccsc5)N5CCCC5)cc34)c2)CC1 (stereo not drawn) [Example A96, N-(3-(3-(4-Methylpiperazine-1-carbonyl)phenyl)-1H-indazol-5-yl)-2-(pyrrolidin-1-yl)-2-(thiophen-3-yl)acetamide] | 5 to 20 µM | 5 to 20 µM | 5 to 20 µM | 5 to 50 µM | ≤ 5 µM | 5 to 20 µM | 5 to 20 µM | 5 to 20 µM | ≤ 5 µM
CN1CCC(Oc2cccc(-c3n[nH]c4ccc(NC(=O)C(c5ccsc5)N5CCCC5)cc34)c2)CC1 (stereo not drawn) [Example A99, N-(3-(3-((1-methylpiperidin-4-yl)oxy)phenyl)-1H-indazol-5-yl)-2-(pyrrolidin-1-yl)-2-(thiophen-3-yl)acetamide] | ≤ 5 µM | ≤ 5 µM | ≤ 5 µM | ≤ 5 µM | ≤ 5 µM | ≤ 5 µM | ≤ 5 µM | ≤ 5 µM | ≤ 5 µM
O=C(NC(c1ccccc1)C1CC1)c1ccc2[nH]nc(-c3ccc(OC4CCN(CCO)CC4)cc3)c2c1 (stereo not drawn) [Example A104, N-(cyclopropyl(phenyl)methyl)-3-(4-((1-(2-hydroxyethyl)piperidin-4-yl)oxy)phenyl)-1H-indazole-5-carboxamide] | ≤ 5 µM | ≤ 5 µM | ≤ 5 µM | ≤ 5 µM | ≤ 5 µM | ≤ 5 µM | ≤ 5 µM | ≤ 5 µM | ≤ 5 µM
CN1CCC(Oc2ccc(-c3n[nH]c4ccc(C(=O)NCc5ccccc5N5CCOCC5)cc34)cc2)CC1 [Example A108, 3-(4-(1-Methylpiperidin-4-yloxy)phenyl)-N-(2-morpholinobenzyl)-1H-indazole-5-carboxamide] | ≤ 5 µM | ≤ 5 µM | ≤ 5 µM | ≤ 5 µM | ≤ 5 µM | ≤ 5 µM | ≤ 5 µM | ≤ 5 µM | ≤ 5 µM
CN1CCC(Oc2ccc(-c3n[nH]c4ccc(C(=O)NCc5ccccc5CO)cc34)cc2)CC1 [Example A142, N-(2-(hydroxymethyl)benzyl)-3-(4-((1-methylpiperidin-4-yl)oxy)phenyl)-1H-indazole-5-carboxamide] | ≤ 5 µM | ≤ 5 µM | 5 to 20 µM |  | ≤ 5 µM | ≤ 5 µM | ≤ 5 µM | ≤ 5 µM | ≤ 5 µM
CO[C@@H](C(=O)Nc1ccc2[nH]nc(-c3ccc(OCC4CCN(C)CC4)cc3)c2c1)c1ccccc1 [Example A145, (R)-2-methoxy-N-(3-(4-((1-methylpiperidin-4-yl)methoxy)phenyl)-1H-indazol-5-yl)-2-phenylacetamide] | ≤ 5 µM | ≤ 5 µM | ≤ 5 µM |  | ≤ 5 µM | ≤ 5 µM | ≤ 5 µM | ≤ 5 µM | ≤ 5 µM
CN1CCC(Oc2ccc(-c3n[nH]c4ccc(NC(=O)C5OCCc6ccccc65)cc34)cc2)CC1 (stereo not drawn) [Example A146, N-(3-(4-(1-Methylpiperidin-4-yloxy)phenyl)-1H-indazol-5-yl)isochroman-1-carboxamide] | ≤ 5 µM | ≤ 5 µM | ≤ 5 µM |  | ≤ 5 µM | ≤ 5 µM | ≤ 5 µM | ≤ 5 µM | ≤ 5 µM
COc1ccccc1C(C(=O)Nc1ccc2[nH]nc(-c3ccc(OC4CCN(C)CC4)cc3)c2c1)C1CCCC1 (stereo not drawn) [Example A156, 2-cyclopentyl-2-(2-methoxyphenyl)-N-(3-(4-((1-methylpiperidin-4-yl)oxy)phenyl)-1H-indazol-5-yl)acetamide] | ≤ 5 µM | ≤ 5 µM | ≤ 5 µM |  | ≤ 5 µM | ≤ 5 µM | ≤ 5 µM | ≤ 5 µM | ≤ 5 µM
CN1CCC(Oc2ccc(-c3n[nH]c4ccc(NC(=O)C(c5ccccc5F)C5CCCC5)cc34)cc2)CC1 (stereo not drawn) [Example A162, 2-cyclopentyl-2-(2-fluorophenyl)-N-(3-(4-((1-methylpiperidin-4-yl)oxy)phenyl)-1H-indazol-5-yl)acetamide] | ≤ 5 µM | ≤ 5 µM | ≤ 5 µM |  | ≤ 5 µM | ≤ 5 µM | ≤ 5 µM | ≤ 5 µM | ≤ 5 µM
COCCN1CCC(Oc2ccc(-c3n[nH]c4ccc(C(=O)N[C@H](COC)c5ccccc5)cc34)cc2)CC1 [Example A164, (S)—N-(2-methoxy-1-phenylethyl)-3-(4-((1-(2-methoxyethyl)piperidin-4-yl)oxy)phenyl)-1H-indazole-5-carboxamide] | ≤ 5 µM | ≤ 5 µM | ≤ 5 µM |  | ≤ 5 µM | ≤ 5 µM | ≤ 5 µM | ≤ 5 µM | ≤ 5 µM
